Assay results taken from patent publication US8063018B2, “Bivalent thrombin binding molecules comprising linkers” (National Research Council of Canada, priority 2004, dated 2011).

The compounds below were run against thrombin (Homo sapiens, UniProt P00734) (assay: Fibrinogen clotting assay catalyzed by thrombin). Conditions: 25 nM inhibitor, 5 and 10 μM SAP-SH2, 25° C.
Format: biochemical
Protocol: Curves represent OD420 time course after the addition of 0.6 nM thrombin in the presence of (♦) 0 nM; (◯) 0.5 nM; (□) 1 nM; (Δ) 1.5 nM; (⋄) 2.5 nM; (●) 3.75 nM; (▪) 6.25 nM; and (▴) […] of the inhibitor with linker (GS)n and n=2 (SEQ. ID. NO. 50) (a); n=4 (SEQ. ID. NO. 51) (b); n=6 (SEQ. ID. NO. 52) (c); n=8 (SEQ. ID. NO. 53) (d); n=10 (SEQ. ID. NO. 54) (e); and in the presence of (♦) 0 nM; (◯) 1 nM; (□) 2 nM; (Δ) 4 nM; (⋄) 6 nM; (●) 10 nM; (▪) 15 nM; and (▴) 25 nM of the inhibitor with linker (GS)n and n=12 (SEQ. ID. NO. 55) (f); n=14 (SEQ. ID. NO. 56) (g), at 37° C. The onset clotting time was determined as an intersection of the baseline and the extrapolated linear portion of the OD change curve. […] Curves (i) represent OD420 time course in the presence of (A) 0 nM; (◯) 1 nM; (□) 2 nM; (Δ) 4 nM; (⋄) 6 nM; and (●) 15 nM of the inhibitor with linker […] (SEQ. ID. NO. 103), at 37° C. […] represent OD420 time course in the presence of (◯) 0 nM; (□) 2 nM; (Δ) 4 nM; (⋄) 6 nM; (●) 8 nM; (▪) 10 nM; (▴) 12 nM; and (♦) 15 nM; of the inhibitor with linker […] (SEQ. ID. NO. 58) at 25° C. Curves (k) represent OD420 time course in the presence of (◯) 0 nM; (□) 0.5 nM; (Δ) 1 nM; (⋄) 2 nM; (●) 3 nM; (▪) 4 nM; (▴) 5 nM; and (♦) 6 nM; of the inhibitor with linker […] (SEQ. ID. NO. 105) at 37° C. Curves (I) represent OD420 time course in the presence of (◯) 0 nM; (□) 0.25 nM; (Δ) 0.5 nM; (⋄) 1 nM; (●) 1.5 nM; (▪) 2 nM; and (▴) 2.5 nM; of the inhibitor with linker […] (SEQ. ID. NO. 104) at 37° C. Curves (m) represent OD420 time course in the presence of (◯) 0 nM; (□) 2 nM; (Δ) 4 nM; (⋄) 6 nM; (●) 8 nM; (▴) 10 nM; and (A) 12 nM; of the inhibitor with linker […] (SEQ. ID. NO. 106) at 37° C. Curves (n) represent OD420 time course in the presence of (◯) 0 nM; (□) 1 nM; (Δ) 2 nM; (⋄) 3 nM; (●) 4 nM; (▪) 5 nM; (▴) 6 nM; and (♦) 7 nM; of the inhibitor with linker […] (SEQ. ID. NO. 107) at 37° C. Curves (o) represent OD420 time course in the presence of (◯) 0 nM; (□) 4 nM; and (Δ) 8 nM; of the inhibitor with linker GQSHNR (SEQ. ID. NO. 108) at 37° C.
Other experimental conditions were as used for the assays described in FIG. 2.
Clotting assays were carried out by use of the protocols described previously (DiMaio and others, 1990, 21698-21703; Witting and others, 1992, 737-743). The assay employs bovine plasma fibrinogen dissolved at 0.1% in 50 mM Tris-Cl, 100 mM NaCl, 0.1% PEG-8000 at pH 7.6 (i.e. the clotting buffer). Each assay mixture contained a certain concentration of the peptide, and the reaction was started by the addition of human thrombin to a final concentration of 0.6-1.2 nM. Optical absorbance increase at 420 nm caused by fibrin clot formation was measured at 25° C. or 37° C. using the Spectramax plate reader. The onset clotting time was determined as an intersection of the baseline and the extrapolated linear portion of the OD change curve. The concentration of a peptide needed to double the clotting time was defined as IC50 (DiMaio and others, 1990, 21698-21703). Kinetic amidolytic curves were obtained in clotting buffer at 25° C. using eight inhibitor concentrations and three to five concentrations of the chromogenic substrate S-2238 (Chromogenix) (DiMaio and others, 1990, 21698-21703). Inhibition constants were extracted from Lineweaver-Burk equation by using weighted linear regression. Errors in Ki determination were estimated by using Monte-Carlo sampling with 1-3% variance of the experimental points.
In the case of `CC[C@H](C)[C@H](NC(=O)[C@@H](NC(=O)[C@H](CC(C)C)NC(=O)[C@H](CO)NC(=O)[C@H](CCCCN)NC(=O)[C@H](CCCNC(=N)N)NC(=O)CNC(=O)[C@H]1CCCCN1C(=O)[C@H](CCCNC(=N)N)NS(=O)(=O)c1ccc(C(C)(C)C)cc1)[C@@H](C)O)C(=O)N[C@@H](Cc1ccc(O)cc1)C(=O)N[C@@H](C)C(=O)N[C@@H](CCC(N)=O)C(=O)N[C@H](C(=O)N[C@@H](CCC(N)=O)C(=O)N[C@@H](CCCCN)C(=O)NCC(=O)N[C@@H](CC(=O)O)C(=O)N[C@@H](Cc1ccccc1)C(=O)N[C@@H](CCC(=O)O)C(=O)N[C@@H](CCC(=O)O)C(=O)N[C@H](C(=O)N1CCC[C@H]1C(=O)N[C@@H](CCC(=O)O)C(=O)N[C@@H](CCC(=O)O)C(=O)N[C@@H](Cc1ccc(O)cc1)C(=O)N[C@@H](CC(C)C)C(=O)N[C@@H](CCC(N)=O)C(=O)O)[C@@H](C)CC)C(C)C` [P3291], the “Effect of SAP-SH2 on thrombin inhibition” value is reported as “reversal of thrombin inhibition”.

Same assay, conditions: IC50, nM (25° C.), 25° C.; concentration needed to double the clotting time
`CC[C@H](C)[C@H](NC(=O)[C@@H](NC(=O)[C@H](CC(C)C)NC(=O)[C@H](CO)NC(=O)[C@H](CCCCN)NC(=O)[C@H](CCCNC(=N)N)NC(=O)CNC(=O)[C@H]1CCCCN1C(=O)[C@H](CCCNC(=N)N)NS(=O)(=O)c1ccc(C(C)(C)C)cc1)[C@@H](C)O)C(=O)N[C@@H](Cc1ccc(O)cc1)C(=O)N[C@@H](C)C(=O)N[C@@H](CCC(N)=O)C(=O)N[C@H](C(=O)N[C@@H](CCC(N)=O)C(=O)N[C@@H](CCCCN)C(=O)NCC(=O)N[C@@H](CC(=O)O)C(=O)N[C@@H](Cc1ccccc1)C(=O)N[C@@H](CCC(=O)O)C(=O)N[C@@H](CCC(=O)O)C(=O)N[C@H](C(=O)N1CCC[C@H]1C(=O)N[C@@H](CCC(=O)O)C(=O)N[C@@H](CCC(=O)O)C(=O)N[C@@H](Cc1ccc(O)cc1)C(=O)N[C@@H](CC(C)C)C(=O)N[C@@H](CCC(N)=O)C(=O)O)[C@@H](C)CC)C(C)C` [P3291] was tested, and the IC50 was 7 ± 1 nM.

Same assay, conditions: IC50, nM (37° C.), 37° C.; concentration needed to double the clotting time
Work on `CC[C@H](C)[C@H](NC(=O)[C@H](CCC(N)=O)NC(=O)[C@@H]1CCCN1C(=O)[C@H](CCCNC(=N)N)NC(=O)[C@@H]1CCCN1C(=O)[C@H](C)NC(=O)[C@H](Cc1c[nH]cn1)NC(=O)[C@H](CO)NC(=O)CNC(=O)[C@H]1CCCCN1C(=O)[C@H](CCCNC(=N)N)NS(=O)(=O)c1ccc(C(C)(C)C)cc1)C(=O)N[C@@H](Cc1c[nH]cn1)C(=O)N[C@@H](CC(N)=O)C(=O)N[C@@H](CC(=O)O)C(=O)NCC(=O)N[C@@H](CC(=O)O)C(=O)N[C@@H](Cc1ccccc1)C(=O)N[C@@H](CCC(=O)O)C(=O)N[C@@H](CCC(=O)O)C(=O)N[C@H](C(=O)N1CCC[C@H]1C(=O)N[C@@H](CCC(=O)O)C(=O)N[C@@H](CCC(=O)O)C(=O)N[C@@H](Cc1ccc(O)cc1)C(=O)N[C@@H](CC(C)C)C(=O)N[C@@H](CCC(N)=O)C(=O)O)[C@@H](C)CC` [P3210] yielded an IC50 of 0.6 nM. Compound `CC[C@H](C)[C@H](NC(=O)[C@H](CCC(=O)O)NC(=O)[C@H](CCC(=O)O)NC(=O)[C@H](Cc1ccccc1)NC(=O)[C@H](CC(=O)O)NC(=O)CNC(=O)[C@@H](NC(=O)[C@H](CC(=O)O)NC(=O)CNC(=O)[C@H](C)NC(=O)[C@H](CCC(N)=O)NC(=O)[C@H](CCCCN)NC(=O)[C@H](C)NC(=O)CNC(=O)CNC(=O)[C@H](CC(C)C)NC(=O)[C@H](Cc1c[nH]cn1)NC(=O)[C@H](Cc1c[nH]cn1)NC(=O)CNC(=O)[C@H]1CCCCN1C(=O)[C@H](CCCNC(=N)N)NS(=O)(=O)c1ccc(C(C)(C)C)cc1)C(C)C)C(=O)N1CCC[C@H]1C(=O)N[C@@H](CCC(=O)O)C(=O)N[C@@H](CCC(=O)O)C(=O)N[C@@H](Cc1ccc(O)cc1)C(=O)N[C@@H](CC(C)C)C(=O)N[C@@H](CCC(N)=O)C(=O)O` [P3234] has an IC50 of 3.9 ± 0.8 nM. Work on `CC[C@H](C)[C@H](NC(=O)[C@H](CCC(=O)O)NC(=O)[C@H](CCC(=O)O)NC(=O)[C@H](Cc1ccccc1)NC(=O)[C@H](CC(=O)O)NC(=O)CNC(=O)[C@H](CCCNC(=N)N)NC(=O)[C@H](CC(=O)O)NC(=O)[C@H](C)NC(=O)[C@H](CCCNC(=N)N)NC(=O)[C@H](CO)NC(=O)[C@H](CCC(=O)O)NC(=O)[C@H](CCSC)NC(=O)[C@H](Cc1ccc(O)cc1)NC(=O)CNC(=O)[C@H]1CCCCN1C(=O)[C@H](CCCNC(=N)N)NS(=O)(=O)c1ccc(C(C)(C)C)cc1)C(=O)N1CCC[C@H]1C(=O)N[C@@H](CCC(=O)O)C(=O)N[C@@H](CCC(=O)O)C(=O)N[C@@H](Cc1ccc(O)cc1)C(=O)N[C@@H](CC(C)C)C(=O)N[C@@H](CCC(N)=O)C(=O)O` [P3236] yielded an IC50 of 1 ± 0.5 nM. In the case of `CC[C@H](C)[C@H](NC(=O)[C@H](CCC(=O)O)NC(=O)[C@H](CCC(=O)O)NC(=O)[C@H](Cc1ccccc1)NC(=O)[C@H](CC(=O)O)NC(=O)CNC(=O)[C@H](CCCNC(=N)N)NC(=O)[C@H](CC(N)=O)NC(=O)[C@H](Cc1c[nH]cn1)NC(=O)[C@H](CO)NC(=O)[C@H](CCC(N)=O)NC(=O)CNC(=O)[C@H]1CCCCN1C(=O)[C@H](CCCNC(=N)N)NS(=O)(=O)c1ccc(C(C)(C)C)cc1)C(=O)N1CCC[C@H]1C(=O)N[C@@H](CCC(=O)O)C(=O)N[C@@H](CCC(=O)O)C(=O)N[C@@H](Cc1ccc(O)cc1)C(=O)N[C@@H](CC(C)C)C(=O)N[C@@H](CCC(N)=O)C(=O)O` [P3238], the IC50 is reported as 2 ± 1 nM. Compound `CC[C@H](C)[C@H](NC(=O)[C@H](CCC(=O)O)NC(=O)[C@H](CCC(=O)O)NC(=O)[C@H](Cc1ccccc1)NC(=O)[C@H](CC(=O)O)NC(=O)CNC(=O)[C@H](CC(=O)O)NC(=O)[C@H](CC(N)=O)NC(=O)[C@H](Cc1c[nH]cn1)NC(=O)[C@H](CO)NC(=O)[C@H](CCC(N)=O)NC(=O)[C@@H]1CCCN1C(=O)[C@H](CCCCN)NC(=O)[C@@H]1CCCN1C(=O)[C@@H](NC(=O)CNC(=O)[C@H](CCC(=O)O)NC(=O)CNC(=O)[C@H](CC(=O)O)NC(=O)[C@@H](NC(=O)[C@H](Cc1ccccc1)NC(=O)[C@H](CCCNC(=N)N)NC(=O)[C@@H](N)C(C)C)[C@@H](C)O)[C@@H](C)O)C(=O)N1CCC[C@H]1C(=O)N[C@@H](CCC(=O)O)C(=O)N[C@@H](CCC(=O)O)C(=O)N[C@@H](Cc1ccc(O)cc1)C(=O)N[C@@H](CC(C)C)C(=O)N[C@@H](CCC(N)=O)C(=O)O` [mini-hirudin 1] has an IC50 of 33 ± 3 nM. `CC[C@H](C)[C@H](N)C(=O)N[C@@H](CCCNC(=N)N)C(=O)N[C@@H](Cc1ccccc1)C(=O)N[C@H](C(=O)N[C@@H](CC(=O)O)C(=O)NCC(=O)N[C@@H](CCC(=O)O)C(=O)NCC(=O)N[C@H](C(=O)N1CCC[C@H]1C(=O)N[C@@H](CC(N)=O)C(=O)N1CCC[C@H]1C(=O)N[C@@H](CCC(=O)O)C(=O)N[C@@H](CO)C(=O)N[C@@H](Cc1c[nH]cn1)C(=O)N[C@@H](CC(N)=O)C(=O)N[C@@H](CC(N)=O)C(=O)NCC(=O)N[C@@H](CC(=O)O)C(=O)N[C@@H](Cc1ccccc1)C(=O)N[C@@H](CCC(=O)O)C(=O)N[C@@H](CCC(=O)O)C(=O)N[C@H](C(=O)N1CCC[C@H]1C(=O)N[C@@H](CCC(=O)O)C(=O)N[C@@H](CCC(=O)O)C(=O)N[C@@H](Cc1ccc(O)cc1)C(=O)N[C@@H](CC(C)C)C(=O)N[C@@H](CCC(N)=O)C(=O)O)[C@@H](C)CC)[C@@H](C)O)[C@@H](C)O` [mini-hirudin 2] gave an IC50 of 14 ± 1 nM. With `CC[C@H](C)[C@H](N)C(=O)N[C@@H](CCCNC(=N)N)C(=O)N[C@@H](Cc1ccccc1)C(=O)N[C@H](C(=O)N[C@@H](CC(=O)O)C(=O)NCC(=O)N[C@@H](C)C(=O)N[C@@H](CCCCN)C(=O)N[C@H](C(=O)N[C@H](C(=O)N[C@@H](CCSC)C(=O)N[C@H](C(=O)N[C@@H](CS)C(=O)N[C@@H](CO)C(=O)N[C@@H](C)C(=O)N[C@@H](CO)C(=O)NCC(=O)N[C@@H](CC(=O)O)C(=O)N[C@@H](Cc1ccccc1)C(=O)N[C@@H](CCC(=O)O)C(=O)N[C@@H](CCC(=O)O)C(=O)N[C@H](C(=O)N1CCC[C@H]1C(=O)N[C@@H](CCC(=O)O)C(=O)N[C@@H](CCC(=O)O)C(=O)N[C@@H](Cc1ccc(O)cc1)C(=O)N[C@@H](CC(C)C)C(=O)N[C@@H](CCC(N)=O)C(=O)O)[C@@H](C)CC)[C@@H](C)O)[C@@H](C)O)C(C)C)[C@@H](C)O` [mini-hirudin 3] the IC50 was 10 ± 1 nM.
